In ChEMBL document CHEMBL4184109, “Design, synthesis, and structure-activity relationship studies of novel tetrazole antifungal agents with potent activity, broad antifungal spectrum and high selectivity” (Bioorg Med Chem Lett, 2018):
In brackets after ≈: the same amount, converted by molar mass.

Key:
Nannizzia gypsea [1] = assay: Antifungal activity against Microsporum gypseum by serial dilution method; format: functional
Cytochrome P450 2D6 = Cytochrome P450 2D6 (Homo sapiens, UniProt P10635); assay: Inhibition of CYP2D6 in human liver microsomes using dextromethorphan as substrate preincubated for 10 mins with substrate followed by NADPH addition measured after 15 mins by LC/MS/MS analysis; format: ADME
Cytochrome P450 2D6, sequence (P10635 whole entry): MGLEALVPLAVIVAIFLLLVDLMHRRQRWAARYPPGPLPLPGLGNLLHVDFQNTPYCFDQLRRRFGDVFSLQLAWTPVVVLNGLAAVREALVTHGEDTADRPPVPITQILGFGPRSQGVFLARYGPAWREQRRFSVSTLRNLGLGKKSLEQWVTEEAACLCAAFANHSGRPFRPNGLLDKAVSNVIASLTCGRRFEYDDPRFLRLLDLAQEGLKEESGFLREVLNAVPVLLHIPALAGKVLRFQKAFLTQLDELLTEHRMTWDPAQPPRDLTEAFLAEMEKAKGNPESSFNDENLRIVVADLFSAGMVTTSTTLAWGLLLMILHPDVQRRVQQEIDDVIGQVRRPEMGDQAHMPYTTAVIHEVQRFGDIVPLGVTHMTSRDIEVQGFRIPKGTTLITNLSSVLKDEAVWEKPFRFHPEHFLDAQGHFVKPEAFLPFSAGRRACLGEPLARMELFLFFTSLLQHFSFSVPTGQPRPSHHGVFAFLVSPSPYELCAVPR

Candida albicans [2] = assay: Antifungal activity against Candida albicans Y0109 after 24 hrs by serial dilution method; format: functional; details: Y0109, 24 h
Cytochrome P450 2C9 = Cytochrome P450 2C9 (Homo sapiens, UniProt P11712); assay: Inhibition of CYP2C9 in human liver microsomes using tolbutamide as substrate preincubated for 10 mins with substrate followed by NADPH addition measured after 15 mins by LC/MS/MS analysis; format: ADME
Cytochrome P450 2C9, sequence (P11712 whole entry): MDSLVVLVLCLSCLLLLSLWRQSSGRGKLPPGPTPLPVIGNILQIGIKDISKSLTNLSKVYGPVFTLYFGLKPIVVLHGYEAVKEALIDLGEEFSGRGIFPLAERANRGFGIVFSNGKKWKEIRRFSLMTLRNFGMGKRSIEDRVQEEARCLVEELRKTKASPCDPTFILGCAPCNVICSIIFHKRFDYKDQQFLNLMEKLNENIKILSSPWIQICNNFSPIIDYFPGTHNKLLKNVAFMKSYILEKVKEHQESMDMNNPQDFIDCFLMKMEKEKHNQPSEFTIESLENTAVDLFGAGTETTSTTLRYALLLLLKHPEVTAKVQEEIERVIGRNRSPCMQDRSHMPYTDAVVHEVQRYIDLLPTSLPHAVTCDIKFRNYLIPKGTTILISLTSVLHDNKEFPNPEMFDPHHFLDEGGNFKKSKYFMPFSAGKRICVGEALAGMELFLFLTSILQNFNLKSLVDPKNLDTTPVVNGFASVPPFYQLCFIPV

Cryptococcus neoformans [3] = assay: Antifungal activity against Cryptococcus neoformans after 72 hrs by serial dilution method; format: functional
Cytochrome P450 2C19 = Cytochrome P450 2C19 (Homo sapiens, UniProt P33261); assay: Inhibition of CYP2C19 in human liver microsomes using mephenytoin as substrate preincubated for 10 mins with substrate followed by NADPH addition measured after 15 mins by LC/MS/MS analysis; format: ADME
Cytochrome P450 2C19, sequence (P33261 whole entry): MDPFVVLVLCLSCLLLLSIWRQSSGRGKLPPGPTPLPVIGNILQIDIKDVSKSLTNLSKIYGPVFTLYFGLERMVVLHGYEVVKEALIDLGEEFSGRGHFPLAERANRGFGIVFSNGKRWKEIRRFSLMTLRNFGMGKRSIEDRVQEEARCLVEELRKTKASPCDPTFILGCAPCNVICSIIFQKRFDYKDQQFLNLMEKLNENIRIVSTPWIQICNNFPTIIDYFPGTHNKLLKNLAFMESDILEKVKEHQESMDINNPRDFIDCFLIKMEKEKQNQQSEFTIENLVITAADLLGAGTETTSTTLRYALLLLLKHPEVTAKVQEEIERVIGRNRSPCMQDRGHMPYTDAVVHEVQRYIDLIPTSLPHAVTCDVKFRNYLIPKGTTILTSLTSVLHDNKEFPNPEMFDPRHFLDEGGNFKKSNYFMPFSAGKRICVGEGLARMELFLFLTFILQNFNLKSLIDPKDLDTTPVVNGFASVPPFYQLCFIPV

Candida parapsilosis [4] = assay: Antifungal activity against Candida parapsilosis ATCC 22019 after 24 hrs by serial dilution method; format: functional; details: Lodderomyces parapsilosis, ATCC 22019, 24 h
Trichophyton rubrum [5] = assay: Antifungal activity against Trichophyton rubrum by serial dilution method; format: functional
Aspergillus fumigatus = assay: Antifungal activity against Aspergillus fumigatus after 48 hrs by serial dilution method; format: functional
Cytochrome P450 1A2 = biological target: T1, Cytochrome P450 1A2 (Homo sapiens, UniProt P05177); assay: Inhibition of CYP1A2 in human liver microsomes using phenacetin as substrate preincubated for 10 mins with substrate followed by NADPH addition measured after 15 mins by LC/MS/MS analysis; format: ADME
T1 sequence (P05177 whole entry): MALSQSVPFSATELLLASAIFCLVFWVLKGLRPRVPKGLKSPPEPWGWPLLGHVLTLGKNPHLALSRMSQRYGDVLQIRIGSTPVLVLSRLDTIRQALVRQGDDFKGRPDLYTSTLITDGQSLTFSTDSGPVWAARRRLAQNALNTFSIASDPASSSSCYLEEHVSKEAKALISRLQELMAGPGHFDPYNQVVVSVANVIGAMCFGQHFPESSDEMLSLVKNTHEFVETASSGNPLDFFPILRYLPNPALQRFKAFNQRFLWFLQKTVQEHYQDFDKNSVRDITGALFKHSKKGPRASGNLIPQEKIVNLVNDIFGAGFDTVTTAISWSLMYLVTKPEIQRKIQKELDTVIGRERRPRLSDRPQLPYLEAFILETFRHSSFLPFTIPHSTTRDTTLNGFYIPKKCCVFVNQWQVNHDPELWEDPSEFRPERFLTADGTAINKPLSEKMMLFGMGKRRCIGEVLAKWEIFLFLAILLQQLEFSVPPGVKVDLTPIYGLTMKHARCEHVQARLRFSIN

Nakaseomyces glabratus [6] = assay: Antifungal activity against Candida glabrata after 24 hrs by serial dilution method; format: functional
Candida albicans [7] = assay: Antifungal activity against Candida albicans SC5314 after 24 hrs by serial dilution method; format: functional; details: SC5314, 24 h
Candida albicans [8] = assay: Potency index, ratio of VT-1161 MIC80 to compound MIC80 for Candida albicans Y0109; format: functional
Candida albicans [9] = assay: Potency index, ratio of VT-1161 MIC80 to compound MIC80 for Candida albicans SC5314; format: functional
Candida parapsilosis [10] = assay: Potency index, ratio of VT-1161 MIC80 to compound MIC80 for Candida parapsilosis ATCC 22019; format: functional
Nakaseomyces glabratus [11] = assay: Potency index, ratio of VT-1161 MIC80 to compound MIC80 for Candida glabrata; format: functional
Nannizzia gypsea [12] = assay: Potency index, ratio of VT-1161 MIC80 to compound MIC80 for Microsporum gypseum; format: functional
Trichophyton rubrum [13] = assay: Potency index, ratio of VT-1161 MIC80 to compound MIC80 for Trichophyton rubrum; format: functional
Cryptococcus neoformans [14] = assay: Potency index, ratio of VT-1161 MIC80 to compound MIC80 for Cryptococcus neoformans; format: functional

Compound | MIC80 (Nannizzia gypsea [1]) | IC50 (Cytochrome P450 2D6) | MIC80 (Candida albicans [2]) | IC50 (Cytochrome P450 2C9) | MIC80 (Cryptococcus neoformans [3]) | IC50 (Cytochrome P450 2C19) | MIC80 (Candida parapsilosis [4]) | MIC80 (Trichophyton rubrum [5]) | MIC80 (Aspergillus fumigatus) | IC50 (Cytochrome P450 1A2) | MIC80 (Nakaseomyces glabratus [6]) | MIC80 (Candida albicans [7]) | Ratio (Candida albicans [8]) | Ratio (Candida albicans [9]) | Ratio (Candida parapsilosis [10]) | Ratio (Nakaseomyces glabratus [11]) | Ratio (Nannizzia gypsea [12]) | Ratio (Trichophyton rubrum [13]) | Ratio (Cryptococcus neoformans [14])
O=c1n(-c2ccc(C(F)(F)C(O)(Cn3cnnn3)c3ccc(F)cc3F)nc2)cnn1C1CCCC1 (stereo not drawn) | 16 µg/mL (≈ 31.7 µM) | 10.8 µM | 0.25 µg/mL (≈ 0.496 µM) | 11.9 µM | 1 µg/mL (≈ 1.98 µM) | 17 µM | 0.125 µg/mL (≈ 0.248 µM) | 4 µg/mL (≈ 7.93 µM) | > 8 µg/mL | 22.6 µM | 2 µg/mL (≈ 3.96 µM) | 0.25 µg/mL (≈ 0.496 µM) |  |  |  |  |  |  | 
CC(C)(C)Cn1ncn(-c2ccc(C(F)(F)C(O)(Cn3cnnn3)c3ccc(F)cc3F)nc2)c1=O (stereo not drawn) | 4 µg/mL (≈ 7.9 µM) | 7.7 µM | 0.25 µg/mL (≈ 0.494 µM) | 25 µM | 0.5 µg/mL (≈ 0.987 µM) | 20 µM | 0.5 µg/mL (≈ 0.987 µM) | 2 µg/mL (≈ 3.95 µM) | > 64 µg/mL | 25 µM | 1 µg/mL (≈ 1.97 µM) | 0.5 µg/mL (≈ 0.987 µM) | 2 - 4 | 2 - 4 | 2 - 4 | 2 - 4 | 2 - 4 | 2 - 4 | 2 - 4
O=c1n(-c2ccc(C(F)(F)C(O)(Cn3cnnn3)c3ccc(F)cc3F)nc2)cnn1C1CCCCC1 (stereo not drawn) | 4 µg/mL (≈ 7.71 µM) | 21.1 µM | 0.25 µg/mL (≈ 0.482 µM) | 16.5 µM | 0.125 µg/mL (≈ 0.241 µM) | 14.6 µM | 0.25 µg/mL (≈ 0.482 µM) | 2 µg/mL (≈ 3.86 µM) | > 64 µg/mL | 14.5 µM | 0.25 µg/mL (≈ 0.482 µM) | 0.25 µg/mL (≈ 0.482 µM) |  |  |  |  |  |  | 
OC(Cn1cnnn1)(c1ccc(F)cc1F)C(F)(F)c1ccc(-c2ccc(OCC(F)(F)F)cc2)cn1 (racemic) | 8 µg/mL (≈ 15.2 µM) | 8.7 µM | 1 µg/mL (≈ 1.9 µM) | 11.5 µM | 1 µg/mL (≈ 1.9 µM) | 8.5 µM | 0.5 µg/mL (≈ 0.948 µM) | 2 µg/mL (≈ 3.79 µM) | > 8 µg/mL | 28.9 µM | 2 µg/mL (≈ 3.79 µM) | 1 µg/mL (≈ 1.9 µM) |  |  |  |  |  |  | 
OC(Cn1cncn1)(Cn1cncn1)c1ccc(F)cc1F [FLUCONAZOLE] | 8 µg/mL (≈ 26.1 µM) |  | 2 µg/mL (≈ 6.53 µM) |  | 0.5 µg/mL (≈ 1.63 µM) |  | 1 µg/mL (≈ 3.27 µM) | 2 µg/mL (≈ 6.53 µM) | > 64 µg/mL |  | 0.5 µg/mL (≈ 1.63 µM) | 0.5 µg/mL (≈ 1.63 µM) |  |  |  |  |  |  | 
